Assay results taken from patent publication US9492453B2 (priority 2007, dated 2016).
Read-outs that look alike come from different tables or passages of the source.

Key:
[1] = system: PKB (Akt); settings: read-out: Cellular PKB Mean IC50; MDA-MB-468 cells, phosphorylation of Serine-9 of GSK-3β, 2 hours incubation
[2] = target: AKT1 (PKBα) (Homo sapiens (Human), UniProt P31749); settings: read-out: In vitro PKBα Mean IC50, AKT1/PKBα active enzyme, Caliper LabChip LC3000
Sequence of AKT1 (PKBα) (P31749 whole entry): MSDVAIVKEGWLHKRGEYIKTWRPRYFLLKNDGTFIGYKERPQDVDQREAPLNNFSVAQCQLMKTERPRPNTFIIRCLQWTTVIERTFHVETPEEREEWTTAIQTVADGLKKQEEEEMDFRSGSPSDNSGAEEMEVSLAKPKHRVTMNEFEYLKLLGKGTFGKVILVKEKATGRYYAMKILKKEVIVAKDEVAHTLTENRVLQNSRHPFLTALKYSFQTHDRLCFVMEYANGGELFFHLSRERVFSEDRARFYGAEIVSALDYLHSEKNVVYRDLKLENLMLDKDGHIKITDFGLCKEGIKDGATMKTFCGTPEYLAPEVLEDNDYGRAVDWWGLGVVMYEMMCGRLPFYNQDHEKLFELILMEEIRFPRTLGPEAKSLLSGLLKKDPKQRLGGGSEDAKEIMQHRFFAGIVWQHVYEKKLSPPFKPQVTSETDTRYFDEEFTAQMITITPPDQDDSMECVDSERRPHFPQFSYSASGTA

IC50 [1] [nM] | IC50 [2] [nM] | IC50 ([2]; tested once only) [nM] | Compound
270 | 9.7 |  | NCC(NC(=O)C1(N)CCN(c2ncnc3[nH]ccc23)CC1)c1ccc(Cl)cc1 (stereo not drawn) [Example 5, 4-amino-N-(2-amino-1-(4-chlorophenyl)ethyl)-1-(7H-pyrrolo[2,3-d]pyrimidin-4-yl)piperidine-4-carboxamide]
20 | 1.2 |  | C[C@H](NC(=O)C1(CN)CCN(c2ncnc3[nH]ccc23)CC1)c1ccc(Cl)cc1 [Example 6, (S)-4-(aminomethyl)-N-(1-(4-chlorophenyl)ethyl)-1-(7H-pyrrolo[2,3-d]pyrimidin-4-yl)piperidine-4-carboxamide]
250 | 4.2 |  | CC(=O)NCCC(NC(=O)C1(N)CCN(c2ncnc3[nH]ccc23)CC1)c1ccc(Cl)cc1 (stereo not drawn) [Example 10, N-(3-acetamido-1-(4-chlorophenyl)propyl)-4-amino-1-(7H-pyrrolo[2,3-d]pyrimidin-4-yl)piperidine-4-carboxamide]
100 |  |  | NCC1(C(=O)NC(CCO)c2ccc(Cl)cc2)CCN(c2ncnc3[nH]ccc23)CC1 (stereo not drawn) [Example 12, 4-(aminomethyl)-N-(1-(4-chlorophenyl)-3-hydroxypropyl)-1-(7H-pyrrolo[2,3-d]pyrimidin-4-yl)piperidine-4-carboxamide]
940 | 3 |  | NCCC(NC(=O)C1(N)CCN(c2ncnc3[nH]ccc23)CC1)c1ccc(Cl)cc1 (stereo not drawn) [Example 14, 4-amino-N-(3-amino-1-(4-chlorophenyl)propyl)-1-(7H-pyrrolo[2,3-d]pyrimidin-4-yl)piperidine-4-carboxamide]
240 | 12 |  | C[C@@H](NC(=O)C1(CN)CCN(c2ncnc3[nH]ccc23)CC1)c1ccc(Cl)cc1 [Example 17, (R)-4-(aminomethyl)-N-(1-(4-chlorophenyl)ethyl)-1-(7H-pyrrolo[2,3-d]pyrimidin-4-yl)piperidine-4-carboxamide]
1400 | 16 |  | N#Cc1ccc([C@H](CCO)NC(=O)C2(N)CCN(c3ncnc4[nH]ccc34)CC2)cc1 [Example 18, (S)-4-amino-N-(1-(4-cyanophenyl)-3-hydroxypropyl)-1-(7H-pyrrolo[2,3-d]pyrimidin-4-yl)piperidine-4-carboxamide]
260 |  |  | NC1(C(=O)N[C@@H](CCO)c2ccc(Cl)cc2)CCN(c2ncnc3[nH]cc(Br)c23)CC1 [Example 19, (S)-4-amino-1-(5-bromo-7H-pyrrolo[2,3-d]pyrimidin-4-yl)-N-(1-(4-chlorophenyl)-3-hydroxypropyl)piperidine-4-carboxamide]
980 |  | 20 | NC1(C(=O)N[C@@H](CCO)c2ccc(Cl)cc2)CCN(c2ncnc3[nH]ncc23)CC1 [Example 20, (S)-4-amino-N-(1-(4-chlorophenyl)-3-hydroxypropyl)-1-(1H-pyrazolo[3,4-d]pyrimidin-4-yl)piperidine-4-carboxamide]
> 3100 |  | 59 | NC1(C(=O)N[C@@H](CCO)c2ccccc2)CCN(c2ncnc3[nH]ccc23)CC1 [Example 21, (S)-4-amino-N-(3-hydroxy-1-phenylpropyl)-1-(7H-pyrrolo[2,3-d]pyrimidin-4-yl)piperidine-4-carboxamide]
170 | 7.5 |  | NC1(C(=O)N[C@@H](CCO)c2ccc(Cl)cc2)CCN(c2ncnc3[nH]cnc23)CC1 [Example 22, (S)-4-amino-N-(1-(4-chlorophenyl)-3-hydroxypropyl)-1-(9H-purin-6-yl)piperidine-4-carboxamide]
80 | 1.3 |  | NCC1(C(=O)N[C@@H](CCO)c2ccc(Cl)cc2)CCN(c2ncnc3[nH]ccc23)CC1 [Example 23, (S)-4-(aminomethyl)-N-(1-(4-chlorophenyl)-3-hydroxypropyl)-1-(7H-pyrrolo[2,3-d]pyrimidin-4-yl)piperidine-4-carboxamide]
60 | 2.2 |  | NC1(C(=O)N[C@@H](CCO)c2ccc(Br)cc2)CCN(c2ncnc3[nH]ccc23)CC1 [Example 24, (S)-4-amino-N-(1-(4-bromophenyl)-3-hydroxypropyl)-1-(7H-pyrrolo[2,3-d]pyrimidin-4-yl)piperidine-4-carboxamide]
90 | 5.6 |  | CCN(CC)CC[C@H](NC(=O)C1(N)CCN(c2ncnc3[nH]ccc23)CC1)c1ccc(Cl)cc1 [Example 26, (S)-4-amino-N-(1-(4-chlorophenyl)-3-(diethylamino)propyl)-1-(7H-pyrrolo[2,3-d]pyrimidin-4-yl)piperidine-4-carboxamide]
370 |  |  | NC1(C(=O)N[C@@H](CCO)c2ccc(Cl)cc2)CCN(c2ncnc3[nH]cc(C4CC4)c23)CC1 [Example 27, (S)-4-amino-N-(1-(4-chlorophenyl)-3-hydroxypropyl)-1-(5-cyclopropyl-7H-pyrrolo[2,3-d]pyrimidin-4-yl)piperidine-4-carboxamide]
470 | 4.5 |  | CNCCC(NC(=O)C1(N)CCN(c2ncnc3[nH]ccc23)CC1)c1ccc(Cl)cc1 (stereo not drawn) [Example 28, 4-amino-N-(1-(4-chlorophenyl)-3-(methylamino)propyl)-1-(7H-pyrrolo[2,3-d]pyrimidin-4-yl)piperidine-4-carboxamide]
1100 | 24 |  | C[C@H](NC(=O)C1(N)CCN(c2ncnc3[nH]nc(Br)c23)CC1)c1ccc(Cl)cc1 [Example 31, 4-amino-1-(3-bromo-1H-pyrazolo[3,4-d]pyrimidin-4-yl)-N-[(1S)-1-(4-chlorophenyl)ethyl]piperidine-4-carboxamide]
420 | 12 |  | C[C@H](NC(=O)C1(N)CCN(c2ncnc3[nH]cc(Cl)c23)CC1)c1ccc(Cl)cc1 [Example 32, 4-amino-N-[(1S)-1-(4-chlorophenyl)ethyl]-1-(5-chloro-7H-pyrrolo[2,3-d]pyrimidin-4-yl)piperidine-4-carboxamide]
240 | 14 |  | NC1(C(=O)N[C@@H](CCO)c2ccc(Cl)cc2)CCN(c2ncnc3[nH]nc(Br)c23)CC1 [Example 33, 4-amino-1-(3-bromo-1H-pyrazolo[3,4-d]pyrimidin-4-yl)-N-[(1S)-1-(4-chlorophenyl)-3-hydroxypropyl]piperidine-4-carboxamide]
350 | 9.2 |  | NC1(C(=O)N[C@@H](CCO)c2ccc(Cl)cc2)CCN(c2ncnc3[nH]cc(Cl)c23)CC1 [Example 34, 4-amino-N-[(1S)-1-(4-chlorophenyl)-3-hydroxypropyl]-1-(5-chloro-7H-pyrrolo[2,3-d]pyrimidin-4-yl)piperidine-4-carboxamide]
280 | 4 |  | C[C@H](NC(=O)C1(N)CCN(c2ncnc3[nH]cc(Br)c23)CC1)c1ccc(Cl)cc1 [Example 35, 4-amino-1-(5-bromo-7H-pyrrolo[2,3-d]pyrimidin-4-yl)-N-[(1S)-1-(4-chlorophenyl)ethyl]piperidine-4-carboxamide]
380 | 14 |  | Cc1c[nH]c2ncnc(N3CCC(N)(C(=O)N[C@@H](CCO)c4ccc(Cl)cc4)CC3)c12 [Example 36, 4-amino-N-[(1S)-1-(4-chlorophenyl)-3-hydroxypropyl]-1-(5-methyl-7H-pyrrolo[2,3-d]pyrimidin-4-yl)piperidine-4-carboxamide]
550 | 19 |  | Cc1c[nH]c2ncnc(N3CCC(N)(C(=O)N[C@@H](C)c4ccc(Cl)cc4)CC3)c12 [Example 37, 4-amino-N-[(1S)-1-(4-chlorophenyl)ethyl]-1-(5-methyl-7H-pyrrolo[2,3-d]pyrimidin-4-yl)piperidine-4-carboxamide]
360 | 5.4 |  | CC(C)(O)C[C@H](NC(=O)C1(N)CCN(c2ncnc3[nH]ccc23)CC1)c1ccc(Cl)cc1 [Example 38, 4-amino-N-[(1S)-1-(4-chlorophenyl)-3-hydroxy-3-methylbutyl]-1-(7H-pyrrolo[2,3-d]pyrimidin-4-yl)piperidine-4-carboxamide]
1900 |  |  | C[C@H](NC(=O)C1(N)CCN(c2ncnc3[nH]ccc23)CC1)c1ccc(C#N)cc1 [Example 39, 4-amino-N-[(1S)-1-(4-cyanophenyl)ethyl]-1-(7H-pyrrolo[2,3-d]pyrimidin-4-yl)piperidine-4-carboxamide]
1900 | 32 |  | NC1(C(=O)N[C@@H](CCO)c2cccc(Cl)c2)CCN(c2ncnc3[nH]ccc23)CC1 [Example 40, 4-amino-N-[(1S)-1-(3-chlorophenyl)-3-hydroxypropyl]-1-(7H-pyrrolo[2,3-d]pyrimidin-4-yl)piperidine-4-carboxamide]
540 | 16 |  | C[C@H](NC(=O)C1(N)CCN(c2ncnc3[nH]ccc23)CC1)c1ccc(C(F)(F)F)cc1 [Example 41, 4-amino-1-(7H-pyrrolo[2,3-d]pyrimidin-4-yl)-N-{(1S)-1-[4-(trifluoromethyl)phenyl]ethyl}piperidine-4-carboxamide]
4300 | 32 |  | C[C@@H](NC(=O)C1(N)CCN(c2ncnc3[nH]ccc23)CC1)c1ccc(Br)cc1 [Example 42, 4-amino-N-[(1R)-1-(4-bromophenyl)ethyl]-1-(7H-pyrrolo[2,3-d]pyrimidin-4-yl)piperidine-4-carboxamide]
770 | 230 |  | N#CC(NC(=O)C1(N)CCN(c2ncnc3[nH]ccc23)CC1)c1ccc(Cl)cc1 (stereo not drawn) [Example 45, 4-amino-N-[(4-chlorophenyl)(cyano)methyl]-1-(7H-pyrrolo[2,3-d]pyrimidin-4-yl)piperidine-4-carboxamide]
190 | 4.3 |  | CN1CCN(CC[C@H](NC(=O)C2(N)CCN(c3ncnc4[nH]ccc34)CC2)c2ccc(Cl)cc2)CC1 [Example 50, 4-amino-N-[(1S)-1-(4-chlorophenyl)-3-(4-methylpiperazin-1-yl)propyl]-1-(7H-pyrrolo[2,3-d]pyrimidin-4-yl)piperidine-4-carboxamide]

Compound | IC50 [1] [nM] | IC50 [2] [nM] | IC50 ([2]; tested once only) [nM]
NC1(C(=O)N[C@H](CCO)c2ccc(Cl)cc2)CCN(c2ncnc3[nH]ccc23)CC1 [Example 15, (R)-4-amino-N-(1-(4-chlorophenyl)-3-hydroxypropyl)-1-(7H-pyrrolo[2,3-d]pyrimidin-4-yl)piperidine-4-carboxamide] | > 3100 |  | 
